The source made the active and inactive calls. No cut-off for these calls is given here.
Experiments:
HeLa [1] = test: Inhibition of beta-tubulin assembly in human HeLa cells assessed as effect on microtubule density at 5 uM after 18 hrs by immunofluorescence assay; format: cell-based
MDA-MB-435 = test: Cytotoxicity against human MDA-MB-435 cells after 48 hrs by sulforhodamine B assay; format: functional, cell-based; conditions: MDA-MB-435, 48 h
MDA-MB-231 = test: Cytotoxicity against human MDA-MB-231 cells after 48 hrs by sulforhodamine B assay; format: functional, cell-based; conditions: MDA-MB-231, 48 h
HeLa [2] = test: Inhibition of beta-tubulin assembly in human HeLa cells assessed as effect on microtubule density up to 40 uM after 18 hrs by immunofluorescence assay; format: cell-based
HeLa [3] = test: Cytotoxicity against human HeLa cells after 48 hrs by sulforhodamine B assay; format: functional, cell-based
PC-3 = test: Cytotoxicity against human PC3 cells after 48 hrs by sulforhodamine B assay; format: functional, cell-based; conditions: PC-3, 48 h

## COC1=CC(=O)C(CCC(=O)c2ccc(OC)c(OC)c2)=C(OC)C1=O [EVELYNIN]
HeLa [1]
  inhibition: inactive
MDA-MB-435
  IC50: 4.1 µM
MDA-MB-231
  IC50: 3.9 µM
HeLa [2]
  inhibition: inactive
HeLa [3]
  IC50: 6.3 µM
PC-3
  IC50: 4.7 µM

Reference: ChEMBL document CHEMBL1221365, “Evelynin, a cytotoxic benzoquinone-type Retro-dihydrochalcone from Tacca chantrieri” (J Nat Prod, 2010)
